Source: the NIST ThermoML archive (doi:10.1021/je050389b)
Numbers after ± are expanded uncertainties.

Assays:
[1] = Liquid
[2] = xn = mol fraction of the nth substance listed; conditions: Liquid, x2 = 0

Structure (SMILES)	viscosity ([1]; 288.15 K, 100.5 kPa) [mPa·s]	mass density ([1]; 288.15 K, 101 kPa) [kg/m3]	viscosity ([1]; 298.15 K, 100.5 kPa) [mPa·s]	mass density ([1]; 298.15 K, 101 kPa) [kg/m3]	viscosity ([1]; 308.15 K, 100.5 kPa) [mPa·s]	mass density ([1]; 308.15 K, 101 kPa) [kg/m3]	viscosity ([1]; 318.15 K, 100.5 kPa) [mPa·s]	mass density ([1]; 318.15 K, 101 kPa) [kg/m3]	viscosity ([2]; 288.15 K, 100.5 kPa) [mPa·s]	mass density ([2]; 288.15 K, 101 kPa) [kg/m3]	viscosity ([2]; 298.15 K, 100.5 kPa) [mPa·s]	mass density ([2]; 298.15 K, 101 kPa) [kg/m3]	viscosity ([2]; 308.15 K, 100.5 kPa) [mPa·s]	mass density ([2]; 308.15 K, 101 kPa) [kg/m3]	viscosity ([2]; 318.15 K, 100.5 kPa) [mPa·s]	mass density ([2]; 318.15 K, 101 kPa) [kg/m3]	also measured
CCCCCC(=O)OCC [ethyl hexanoate]	1.102 ± 0.017	875.64 ± 0.22	0.94 ± 0.016	866.29 ± 0.22	0.814 ± 0.015	856.91 ± 0.23	0.711 ± 0.015	847.5 ± 0.23	–	–	–	–	–	–	–	–	–
CCCCCCCC(=O)OCC [ethyl octanoate]	1.697 ± 0.022	870.79 ± 0.28	1.411 ± 0.02	862.15 ± 0.29	1.193 ± 0.018	853.52 ± 0.29	1.027 ± 0.017	844.87 ± 0.29	–	–	–	–	–	–	–	–	–
CCOC(=O)Cc1ccccc1 [ethyl phenylacetate]	3.002 ± 0.035	1036.35 ± 0.34	2.384 ± 0.028	1026.96 ± 0.33	1.948 ± 0.024	1017.6 ± 0.33	1.624 ± 0.022	1008.26 ± 0.33	–	–	–	–	–	–	–	–	–
CCO [ethanol] + CCOC(=O)c1ccccc1	–	–	–	–	–	–	–	–	1.337 ± 0.019	793.6 ± 0.23	1.105 ± 0.017	785 ± 0.24	0.921 ± 0.016	776.31 ± 0.24	0.771 ± 0.015	767.44 ± 0.25	–
CCO [ethanol]	1.337 ± 0.019	793.6 ± 0.23	1.105 ± 0.017	785 ± 0.24	0.921 ± 0.016	776.31 ± 0.24	0.771 ± 0.015	767.44 ± 0.25	–	–	–	–	–	–	–	–	mass density ([1]; 288.15 K, 100.5 kPa): 793.6 ± 0.23 kg/m3; mass density ([1]; 298.15 K, 100.5 kPa): 785 ± 0.24 kg/m3; mass density ([1]; 308.15 K, 100.5 kPa): 776.31 ± 0.24 kg/m3; mass density ([1]; 318.15 K, 100.5 kPa): 767.44 ± 0.25 kg/m3
CCO [ethanol] + CCCCCCCC(=O)OCC	–	–	–	–	–	–	–	–	1.337 ± 0.019	793.6 ± 0.23	1.105 ± 0.017	785 ± 0.24	0.921 ± 0.016	776.31 ± 0.24	0.771 ± 0.015	767.44 ± 0.25	–
CCO [ethanol] + CCOC(=O)Cc1ccccc1	–	–	–	–	–	–	–	–	1.337 ± 0.019	793.6 ± 0.23	1.105 ± 0.017	785 ± 0.24	0.921 ± 0.016	776.31 ± 0.24	0.771 ± 0.015	767.44 ± 0.25	–
CC(=O)OCCC(C)C [3-methylbutyl ethanoate]	0.94 ± 0.016	–	0.804 ± 0.015	–	0.704 ± 0.015	–	0.627 ± 0.014	–	–	–	–	–	–	–	–	–	mass density ([1]; 288.15 K, 100.5 kPa): 877.72 ± 0.36 kg/m3; mass density ([1]; 298.15 K, 100.5 kPa): 867.91 ± 0.36 kg/m3; mass density ([1]; 308.15 K, 100.5 kPa): 858.07 ± 0.36 kg/m3; mass density ([1]; 318.15 K, 100.5 kPa): 848.17 ± 0.36 kg/m3
CCO [ethanol] + CC(=O)OCCC(C)C	–	–	–	–	–	–	–	–	1.337 ± 0.019	–	1.105 ± 0.017	–	0.921 ± 0.016	–	0.771 ± 0.015	–	mass density ([2]; 288.15 K, 100.5 kPa): 793.6 ± 0.23 kg/m3; mass density ([2]; 298.15 K, 100.5 kPa): 785 ± 0.24 kg/m3; mass density ([2]; 308.15 K, 100.5 kPa): 776.31 ± 0.24 kg/m3; mass density ([2]; 318.15 K, 100.5 kPa): 767.44 ± 0.25 kg/m3
CCOC(=O)c1ccccc1 [ethyl benzoate]	2.444 ± 0.028	1050.78 ± 0.17	1.971 ± 0.024	1041.42 ± 0.17	1.624 ± 0.021	1032.07 ± 0.17	1.368 ± 0.019	1022.73 ± 0.16	–	–	–	–	–	–	–	–	–
CCO [ethanol] + CCCC(=O)OCCC(C)C	–	–	–	–	–	–	–	–	1.337 ± 0.019	793.6 ± 0.23	1.105 ± 0.017	785 ± 0.24	0.921 ± 0.016	776.31 ± 0.24	0.771 ± 0.015	767.44 ± 0.25	–
CCCC(=O)OCCC(C)C [3-methylbutyl butanoate]	1.317 ± 0.019	867.72 ± 0.32	1.111 ± 0.018	858.69 ± 0.32	0.952 ± 0.016	849.62 ± 0.32	0.827 ± 0.016	840.55 ± 0.32	–	–	–	–	–	–	–	–	–
CCO [ethanol] + CCCCCC(=O)OCC	–	–	–	–	–	–	–	–	1.337 ± 0.019	793.6 ± 0.23	1.105 ± 0.017	785 ± 0.24	0.921 ± 0.016	776.31 ± 0.24	0.771 ± 0.015	767.44 ± 0.25	–
